Source: patent publication US9018231B2, “Sulfone compounds as 5-HT6 receptor ligands” (Suven Life Sciences Limited, priority 2010, dated 2015)
Read-outs that look alike come from different tables or passages of the source. Values belong to the molecule of their own block, whether it stands above or below them.

Experiments:
[1] = Object recognition task model; type: in vivo; conditions: rat, 10 mg/kg, p.o.
Experimental: The cognition-enhancing properties of compounds of this invention were estimated using a model of animal cognition: the object recognition task model.
Male Wister rats (230-280 grams) obtained from N.I.N. (National Institute of Nutrition, Hyderabad, India) was used as experimental animals. Four animals were housed in each cage. Animals were kept on 20% food deprivation before one day and given water ad libitum throughout the experiment and maintained on a 12 hours light/dark cycle. Also the rats were habituated to individual arenas for 1 hour in the absence of any objects.
One group of 12 rats received vehicle (1 mL/Kg) orally and another set of animals received compound of the formula (I) either orally or i.p., before one hour of the familiar (T1) and choice trial (T2).
The experiment was carried out in a 50×50×50 cm open field made up of acrylic. In the familiarization phase, (T1), the rats were placed individually in the open field for 3 minutes, in which two identical objects (plastic bottles, 12.5 cm height×5.5 cm diameter) covered in yellow masking tape alone (a1 and a2) were positioned in two adjacent corners, 10 cm. from the walls. After 24 hours of the (T1) trial for long-term memory test, the same rats were placed in the same arena as they were placed in T1 trial. Choice phase (T2) rats were allowed to explore the open field for 3 minutes in presence of one familiar object (a3) and one novel object (b) (Amber color glass bottle, 12 cm high and 5 cm in diameter). Familiar objects presented similar textures, colors and sizes. During the T1 and T2 trial, explorations of each object (defined as sniffing, licking, chewing or having moving vibrissae whilst directing the nose towards the object at a distance of less than 1 cm) were recorded separately by stopwatch. Sitting on an object was not regarded as exploratory activity, however, it was rarely observed. T1 is the total time spent exploring the familiar objects (a1+a2). T2 is the total time spent exploring the familiar object and novel object (a3+b).
The object recognition test was performed as described by Ennaceur, A., Delacour, J., 1988, A new one-trial test for neurobiological studies of memory in rats—Behavioural data, Behav. Brain Res., 31, 47-59.

[2] = Rodent pharmacokinetic study; type: in vivo; conditions: Wistar/Male rat, 10 mg/kg; for AUCt / Cmax / T1/2 / Tmax / AUC(0-t) / half-life: vehicle water (Ex. 8: 50% PEG 400); for bioavailability: Oral vs Intravenous
Experimental: Male wistar rats (230-280 grams) obtained from NIN (National Institute of Nutrition, Hyderabad, India) were used as an experimental animal. Three to five animals were housed in each cage. Animals were kept fasted over night and maintained on a 12 hours light/dark cycle. Three rats were dosed NCE (10 mg/Kg) orally and intravenously on day 0 and day 2.
At each time point blood was collected by jugular vein. Plasma was stored frozen at −20° C. until analysis. The concentrations of the NCE compound in plasma were determined using LC-MS/MS method. Schedule time points: Pre dose 0.25, 0.5, 1, 1.5, 2, 3, 4, 6, 8, 10, 12 and 24 hours after dosing (n=3). The NCE compounds were quantified in plasma by validated LC-MS/MS method using solid phase extraction technique. NCE compounds were quantified in the calibration range of 2-2000 ng/mL in plasma. Study samples were analyzed using calibration samples in the batch and quality control samples spread across the batch.
Pharmacokinetic parameters Cmax, Tmax, AUCt, T1/2 and Bioavailability were calculated by non-compartmental model using software WinNonlin version 5.1.

[3] = Water maze (scopolamine induced reversal); type: in vivo; conditions: rat, p.o.
Experimental: The water maze apparatus consisted of a circular pool (1.8 m diameter, 0.6 m high) constructed in black Perspex (TSE systems, Germany) filled with water (24±2° C.) and positioned underneath a wide-angled video camera to track animal. The 10 cm^2 perspex platform, lying 1 cm below the water surface, was placed in the centre of one of the four imaginary quadrants, which remained constant for all rats. The black Perspex used in the construction of the maze and platform offered no intramaze cues to guide escape behavior. By contrast, the training room offered several strong extramaze visual cues to aid the formation of the spatial map necessary for escape learning. An automated tracking system, [Videomot 2 (5.51), TSE systems, Germany] was employed. This program analyzes video images acquired via a digital camera and an image acquisition boards that determined path length, swim speed and the number of entries and duration of swim time spent in each quadrant of the water maze.

[4] = target: T1, recombinant human 5-HT6 receptor (Homo sapiens, UniProt P50406); experiment: Determination of Kb values for 5-HT6 receptor (CHO pCRE-Luc reporter assay); type: cell-based; conditions: antagonism of 10 uM serotonin, luciferase reporter, CHO cells
T1 construct: expressed in transfected cells
Experimental: A stable CHO cell line expressing recombinant human 5-HT6 receptor and pCRE-Luc reporter system was used for cell-based assay. The assay offers a non-radioactive based approach to determine binding of a compound to GPCRs. In this specific assay, the level of intracellular cyclic AMP which is modulated by activation or inhibition of the receptor is measured. The recombinant cells harbor luciferase reporter gene under the control of cAMP response element.
The above cells were grown in 96 well clear bottom white plates in Hams F12 medium containing 10% fetal bovine serum (FBS). Prior to the addition of compounds and/or agonist, cells were serum starved overnight. Increasing concentrations of test compounds were added along with 10 uM serotonin in Hams F12 medium containing 1% dialyzed FBS to the cells. The incubation was continued at 37° C. in CO2 incubator for 4 hours. Medium was removed and cells were washed with phosphate buffered saline. The cells were lysed and luciferase activity was measured in a Luminometer. Luminescence units were plotted against the compound concentrations using Graphpad software. EC50 values of the compounds were defined as the concentration required reducing the luciferase activity by 50%. The Kb values were calculated by feeding the concentration of the agonist used in the assay and its EC50 value in the same software.

[5] = in vivo; cited from earlier work

T1 sequence (P50406 whole entry): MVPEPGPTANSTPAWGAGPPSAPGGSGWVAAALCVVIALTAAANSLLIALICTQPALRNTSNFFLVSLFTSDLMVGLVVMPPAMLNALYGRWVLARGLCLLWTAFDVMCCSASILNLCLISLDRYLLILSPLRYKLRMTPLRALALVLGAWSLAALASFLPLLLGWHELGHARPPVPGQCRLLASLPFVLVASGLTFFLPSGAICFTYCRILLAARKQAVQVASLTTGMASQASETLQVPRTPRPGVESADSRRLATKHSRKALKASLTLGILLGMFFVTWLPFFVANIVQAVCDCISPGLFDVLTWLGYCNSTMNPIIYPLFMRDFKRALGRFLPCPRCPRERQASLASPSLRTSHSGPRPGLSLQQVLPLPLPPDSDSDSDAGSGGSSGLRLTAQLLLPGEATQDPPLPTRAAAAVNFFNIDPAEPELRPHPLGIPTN

SMILES: Cc1ccc(S(=O)(=O)c2c[nH]c3cc(Cl)ccc23)cc1NC1CCN(C)CC1 [Example 1, N-[2-methyl-5-(6-chloro-1H-indole-3-ylsulfonyl)phenyl]-N-(1-methypiperidin-4-yl)amine]
Exploration time mean ± S.E.M, Familiar object [1]: 10.10 ± 1.84 s
Exploration time mean ± S.E.M, Novel object [1]: 13.22 ± 2.00 s
Inference [1]: Active
AUCt ([2]; Intravenous): 2484 ± 853 ng·h/mL
Cmax ([2]; Intravenous): 1644 ± 582 ng/mL
T1/2 ([2]; Intravenous): 5.23 ± 2.08 h
Tmax ([2]; Intravenous): 0.14 ± 0.10 h
bioavailability [2]: 31 ± 12%
AUCt ([2]; Oral): 750 ± 363 ng·h/mL
Cmax ([2]; Oral): 128 ± 13 ng/mL
T1/2 ([2]; Oral): 6.38 ± 1.38 h
Tmax ([2]; Oral): 3.42 ± 2.74 h
Scopolamine Induced Reversal [3]: ≦10 mg/kg, p.o.
Kb [4]: 1.55 nM

melting point: 208 to 208.9 °C
Kb [4]: 0.22 nM
SMILES: COc1ccc(S(=O)(=O)c2c[nH]c3cc(Cl)ccc23)cc1NC1CCNCC1 [Example 16, N-(Piperidin-4-yl)-N-[2-methoxy-5-(6-chloro-1H-Indole-3-ylsulfonyl)phenyl] amine]
Exploration time mean ± S.E.M, Familiar object [1]: 8.10 ± 1.78 s
Exploration time mean ± S.E.M, Novel object [1]: 12.00 ± 1.84 s
Inference [1]: Active
Scopolamine Induced Reversal [3]: ≦10 mg/kg, p.o.

melting point: 88.6 to 91.6 °C
AUC(0-t) ([2]; plasma, Intravenous): 5730 ± 2620 ng·h/mL
half-life ([2]; plasma, Intravenous): 3.86 ± 0.09 h
Cmax ([2]; plasma, Intravenous, read-out: Cmax): 4220 ± 2250 ng/mL
Tmax ([2]; plasma, Intravenous, read-out: Tmax): 0.08 h
bioavailability ([2]; plasma, read-out: Bioavailability): 24 ± 2%
AUC(0-t) ([2]; plasma, Oral): 1430 ± 734 ng·h/mL
half-life ([2]; plasma, Oral): 1.86 ± 0.09 h
Cmax ([2]; plasma, Oral, read-out: Cmax): 379 ± 160 ng/mL
Tmax ([2]; plasma, Oral, read-out: Tmax): 3 h
Kb [4]: 0.82 nM
SMILES: COc1ccc(S(=O)(=O)c2c[nH]c3cc(Cl)ccc23)cc1NC1CCN(C)CC1 [Example 17, N-(1-Methylpiperidin-4-yl)-N-[2-methoxy-5-(6-chloro-1H-Indole-3-ylsulfonyl)phenyl] amine]

SMILES: COc1ccc(NS(=O)(=O)c2sc3ccc(Cl)cc3c2C)cc1N1CCNCC1 [SB-271046, 5-Chloro-N-(4-methoxy-3-piperazin-1-ylphenyl)-3-methyl-2-benzothiophenesulfonamide]
activity in animal tests related to positive or negative symptoms of schizophrenia [5]: inactive
